In ChEMBL document CHEMBL1146119, “Amino functionalized novel cholic acid derivatives induce HIV-1 replication and syncytia formation in T cells” (J Med Chem, 2006):
Active and inactive are the calls of the source. The rule behind the calls is not given here.

System: Human immunodeficiency virus 1
Test: Induction of HIV1 NL4-3 virus replication in CEM-GFP cells
Assay type: functional, organism-based

Row | Structure (SMILES) | Activity
1 | COC(=O)CC[C@@H](C)[C@H]1CC[C@H]2[C@H]3[C@H]([C@H](N)C(=O)[C@]12C)[C@@]1(C)CC[C@@H](OC(C)=O)C[C@H]1C[C@H]3OC(C)=O | Active
2 | COC(=O)CC[C@@H](C)[C@H]1CC[C@H]2[C@@H]3[C@H](OC(C)=O)C[C@@H]4C[C@H](OC(C)=O)CC[C@]4(C)[C@H]3C[C@H](O)[C@]12C | inactive
3 | COC(=O)CC[C@@H](C)[C@H]1CC[C@H]2[C@H]3[C@H]([C@@H](N)[C@@H](O)[C@]12C)[C@@]1(C)CC[C@@H](OC(C)=O)C[C@H]1C[C@H]3OC(C)=O | Active
4 | COC(=O)CC[C@@H](C)[C@H]1CC[C@H]2[C@H]3[C@H]([C@H](N)[C@H](O)[C@]12C)[C@@]1(C)CC[C@@H](OC(C)=O)C[C@H]1C[C@H]3OC(C)=O | Active
5 | COC(=O)CC[C@@H](C)[C@H]1CC[C@H]2[C@H]3C(=C(N)C(=O)[C@]12C)[C@@]1(C)CC[C@@H](OC(C)=O)C[C@H]1C[C@H]3OC(C)=O | Active
6 | COC(=O)CC[C@@H](C)[C@H]1CC[C@H]2[C@H]3[C@H]([C@@H](N=[N+]=[N-])C(=O)[C@]12C)[C@@]1(C)CC[C@@H](OC(C)=O)C[C@H]1C[C@H]3OC(C)=O | Active
7 | COC(=O)CC[C@@H](C)[C@H]1CC[C@H]2[C@H]3[C@H]([C@H](N=[N+]=[N-])C(=O)[C@]12C)[C@@]1(C)CC[C@@H](OC(C)=O)C[C@H]1C[C@H]3OC(C)=O | Active
8 | C[C@H](CCC(=O)O)[C@H]1CC[C@H]2[C@@H]3[C@H](O)C[C@@H]4C[C@H](O)CC[C@]4(C)[C@H]3C[C@H](O)[C@]12C | inactive
